These are literature values, as cited in patent US20060293293A1, “Salmeterol and ciclesonide combination” (Altana Pharma AG, priority 2003, published 2006).

The conditions of series [1]: compared with budesonide.

For `CC(C)C(=O)OCC(=O)[C@@]12O[C@H](C3CCCCC3)O[C@@H]1C[C@H]1[C@@H]3CCC4=CC(=O)C=C[C@]4(C)[C@H]3[C@@H](O)C[C@@]12C` [Ciclesonide, [11β,16α(R)]-16,17[(Cyclohexylmethylen)bis(oxy)]-11-hydroxy-21-(2-methyl-1-oxoprop-oxy)pregna-1,4dien-3,20-dion], the “metabolism by liver oxidases” value (liver oxidases) is “very high”. Under “lungs”, the “concentration of the drug in the lungs” value was “high”. In addition, the “absorption after oral administration” value (oral administration) was “only moderately absorbed”. For the setting “plasma”, the plasma half-life entry is on record as “low plasma half-life”. In series [1], the “anti-inflammatory activity relative to budesonide” value is given as “higher” and the “systemic activity relative to budesonide” value is on record as “three times lower”.
